Test results reported in ChEMBL document CHEMBL1139088, “Antihyperglycemic and antidyslipidemic agent from Aegle marmelos” (2007).
Calls of active or inactive are those of the source. The rule behind the calls is not given here.

Experiments:
Hamster [1] = assay: Decrease in plasma FFA levels in dyslipidemic hamster model at 30 mg/kg after 7 days; type: functional, Cricetinae; set-up: scale not given: the % may be the effect or the level left
Hamster [2] = assay: Decrease in plasma FFA levels in dyslipidemic hamster model at 50 mg/kg after 7 days; type: functional, Cricetinae; set-up: scale not given: the % may be the effect or the level left
Hamster [3] = assay: Decrease in plasma cholesterol levels in dyslipidemic hamster model at 50 mg/kg after 7 days; type: functional, Cricetinae; set-up: scale not given: the % may be the effect or the level left
Rattus norvegicus [4] = assay: Increase in blood glucose levels in Sprague-Dawley Albino rat at 100 mg/kg, po after 5 hrs; type: functional
Hamster [5] = assay: Increase in ratio of plasma HDL to plasma cholesterol levels at 30 mg/kg after 7 days; type: functional, Cricetinae
Homo sapiens [6] = species: Homo sapiens; assay: Inhibition of alpha-glucosidase
Hamster [7] = assay: Decrease in plasma triglyceride levels in dyslipidemic hamster model at 50 mg/kg after 7 days; type: functional, Cricetinae; set-up: scale not given: the % may be the effect or the level left
Hamster [8] = assay: Decrease in plasma triglyceride levels in dyslipidemic hamster model at 30 mg/kg after 7 days; type: functional, Cricetinae; set-up: scale not given: the % may be the effect or the level left
Hamster [9] = assay: Increase in plasma HDL-C levels in dyslipidemic hamster model at 30 mg/kg after 7 days; type: functional, organism-based; set-up: dose 30 mg/kg; conditions: Cricetinae
Hamster [10] = assay: Decrease in plasma glycerol levels in dyslipidemic hamster model at 30 mg/kg after 7 days; type: functional, Cricetinae; set-up: scale not given: the % may be the effect or the level left
Hamster [11] = assay: Increase in plasma HDL-C levels in dyslipidemic hamster model at 50 mg/kg after 7 days; type: functional, Cricetinae
Hamster [12] = assay: Increase in ratio of plasma HDL to plasma cholesterol levels at 50 mg/kg after 7 days; type: functional, Cricetinae
Homo sapiens [13] = species: Homo sapiens; assay: Inhibition of PTPase
Hamster [14] = assay: Decrease in plasma cholesterol levels in dyslipidemic hamster model at 30 mg/kg after 7 days; type: functional, Cricetinae; set-up: scale not given: the % may be the effect or the level left
Hamster [15] = assay: Decrease in plasma glycerol levels in dyslipidemic hamster model at 50 mg/kg after 7 days; type: functional, Cricetinae; set-up: scale not given: the % may be the effect or the level left
Rattus norvegicus [16] = assay: Increase in blood glucose levels in Sprague-Dawley Albino rat at 100 mg/kg, po after 24 hrs; type: functional
Hamster [17] = assay: Decrease in plasma glycerol levels in dyslipidemic hamster model at 108 mg/kg after 7 days; type: functional, Cricetinae; set-up: scale not given: the % may be the effect or the level left
Hamster [18] = assay: Decrease in plasma cholesterol levels in dyslipidemic hamster model at 108 mg/kg after 7 days; type: functional, Cricetinae; set-up: scale not given: the % may be the effect or the level left
Hamster [19] = assay: Increase in plasma HDL-C levels in dyslipidemic hamster model at 108 mg/kg after 7 days; type: functional, organism-based; set-up: dose 108 mg/kg; conditions: Cricetinae
Hamster [20] = assay: Decrease in plasma triglyceride levels in dyslipidemic hamster model at 108 mg/kg after 7 days; type: functional, Cricetinae; set-up: scale not given: the % may be the effect or the level left
Hamster [21] = assay: Increase in ratio of plasma HDL to plasma cholesterol levels at 108 mg/kg after 7 days; type: functional, Cricetinae
Hamster [22] = assay: Decrease in plasma FFA levels in dyslipidemic hamster model at 108 mg/kg after 7 days; type: functional, Cricetinae; set-up: scale not given: the % may be the effect or the level left

## COc1ccc([C@@H](O)CNC(=O)/C=C/c2ccccc2)cc1 [AEGELINE]
Hamster [1]
  Activity: 14%
Hamster [2]
  Activity: 24%
Hamster [3]
  Activity: 24%
Rattus norvegicus [4]
  Activity: 12.9%
Hamster [5]
  Activity: 20%
Homo sapiens [6]
  Activity: inactive
Hamster [7]
  Activity: 55%
Hamster [8]
  Activity: 48%
Hamster [9]
  Activity: inactive
Hamster [10]
  Activity: 23%
Hamster [11]
  Activity: 28%
Hamster [12]
  Activity: 66%
Homo sapiens [13]
  Activity: inactive
Hamster [14]
  Activity: 17%
Hamster [15]
  Activity: 31%
Rattus norvegicus [16]
  Activity: 16.9%

## CN(C)C(=N)NC(=N)N [METFORMIN]
Rattus norvegicus [4]
  Activity: 23.5%
Rattus norvegicus [16]
  Activity: 26.5%

## CC(C)OC(=O)C(C)(C)Oc1ccc(C(=O)c2ccc(Cl)cc2)cc1 [FENOFIBRATE]
Hamster [17]
  Activity: 36%
Hamster [18]
  Activity: 18%
Hamster [19]
  Activity: inactive
Hamster [20]
  Activity: 42%
Hamster [21]
  Activity: 10%
Hamster [22]
  Activity: 20%
